{"source": "patent US7531530B2", "about": "“Therapeutic compounds” (Cancer Research Technology Limited, priority 2003, dated 2009)", "key": {"PARP (tumour PARP)": {"target": "PARP (tumour PARP) (Homo sapiens, UniProt P09874)", "sequence (P09874 whole entry)": "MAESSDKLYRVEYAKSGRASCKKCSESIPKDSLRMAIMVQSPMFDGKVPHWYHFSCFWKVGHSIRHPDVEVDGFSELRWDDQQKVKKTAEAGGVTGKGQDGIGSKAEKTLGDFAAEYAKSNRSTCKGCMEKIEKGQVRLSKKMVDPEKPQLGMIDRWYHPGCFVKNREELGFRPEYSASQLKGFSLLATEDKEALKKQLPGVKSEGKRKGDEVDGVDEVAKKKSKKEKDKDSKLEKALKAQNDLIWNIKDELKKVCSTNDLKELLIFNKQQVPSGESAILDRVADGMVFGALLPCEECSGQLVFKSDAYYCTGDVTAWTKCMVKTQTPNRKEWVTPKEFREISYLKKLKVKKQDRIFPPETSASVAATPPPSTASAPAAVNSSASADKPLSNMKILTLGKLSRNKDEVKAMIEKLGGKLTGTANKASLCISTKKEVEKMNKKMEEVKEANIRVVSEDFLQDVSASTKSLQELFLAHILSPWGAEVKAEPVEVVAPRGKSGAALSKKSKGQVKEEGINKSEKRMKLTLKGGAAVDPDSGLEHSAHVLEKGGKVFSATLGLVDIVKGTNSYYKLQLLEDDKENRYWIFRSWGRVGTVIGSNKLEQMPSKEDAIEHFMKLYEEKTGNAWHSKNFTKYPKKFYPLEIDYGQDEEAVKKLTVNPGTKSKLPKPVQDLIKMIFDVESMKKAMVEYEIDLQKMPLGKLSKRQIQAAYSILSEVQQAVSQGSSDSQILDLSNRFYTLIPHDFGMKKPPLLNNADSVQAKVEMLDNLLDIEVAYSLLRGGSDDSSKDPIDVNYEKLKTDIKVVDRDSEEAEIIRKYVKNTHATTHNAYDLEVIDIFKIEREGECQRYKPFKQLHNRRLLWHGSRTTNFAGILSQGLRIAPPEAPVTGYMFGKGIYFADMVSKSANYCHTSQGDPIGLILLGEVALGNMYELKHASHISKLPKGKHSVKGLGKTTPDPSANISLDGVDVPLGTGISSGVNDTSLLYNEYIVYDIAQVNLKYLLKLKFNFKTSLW", "experiment": "PARP activity in SW620 tumour homogenates of formula I-phosphate treated mice (10H antibody)", "assay_type": "in vivo"}, "PARP (pbl parp)": {"target": "T1, PARP (pbl parp) (Mus musculus, UniProt P11103)", "T1 construct": "from tissue; host or cells: peripheral blood lymphocytes of treated mice", "T1 sequence (P11103 whole entry)": "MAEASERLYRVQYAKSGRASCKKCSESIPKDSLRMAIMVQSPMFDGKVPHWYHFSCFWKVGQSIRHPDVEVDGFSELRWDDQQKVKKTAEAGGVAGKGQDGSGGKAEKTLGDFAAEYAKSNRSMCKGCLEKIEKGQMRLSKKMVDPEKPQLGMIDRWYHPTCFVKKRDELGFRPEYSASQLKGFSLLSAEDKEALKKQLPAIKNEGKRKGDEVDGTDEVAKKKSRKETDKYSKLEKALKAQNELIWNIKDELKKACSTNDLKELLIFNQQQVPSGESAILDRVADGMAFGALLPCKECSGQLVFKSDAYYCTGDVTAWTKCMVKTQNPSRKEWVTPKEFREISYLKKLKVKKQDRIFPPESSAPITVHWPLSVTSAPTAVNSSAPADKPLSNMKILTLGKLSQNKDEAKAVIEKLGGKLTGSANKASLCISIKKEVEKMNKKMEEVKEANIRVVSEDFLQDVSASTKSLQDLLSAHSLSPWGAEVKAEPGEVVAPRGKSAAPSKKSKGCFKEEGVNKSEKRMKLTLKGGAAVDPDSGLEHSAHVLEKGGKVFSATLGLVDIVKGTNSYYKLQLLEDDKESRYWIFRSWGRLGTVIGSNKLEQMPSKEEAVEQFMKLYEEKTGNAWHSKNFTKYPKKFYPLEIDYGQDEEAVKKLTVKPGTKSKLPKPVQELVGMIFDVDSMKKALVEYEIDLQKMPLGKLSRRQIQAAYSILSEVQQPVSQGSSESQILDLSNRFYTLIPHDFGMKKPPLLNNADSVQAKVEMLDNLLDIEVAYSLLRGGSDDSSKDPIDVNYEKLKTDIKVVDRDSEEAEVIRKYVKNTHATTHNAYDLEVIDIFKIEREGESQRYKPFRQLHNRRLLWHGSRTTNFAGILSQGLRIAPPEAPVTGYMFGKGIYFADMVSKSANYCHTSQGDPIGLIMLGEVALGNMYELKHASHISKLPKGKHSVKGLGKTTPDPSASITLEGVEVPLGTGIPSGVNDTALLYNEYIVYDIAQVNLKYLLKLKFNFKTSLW", "experiment": "PARP activity in peripheral blood lymphocytes of formula I-phosphate treated mice (10H antibody)", "assay_type": "in vivo"}, "[1]": {"experiment": "Plasma and tumour pharmacokinetics in mice bearing SW620 xenografts", "assay_type": "in vivo"}, "Solubility": {"experiment": "Solubility", "assay_type": "physicochemical", "settings": "phosphate salt versus parent compound"}, "PARP (tumour PARP act)": {"target": "T2, PARP (tumour PARP act) (Homo sapiens, UniProt P09874)", "T2 construct": "from tissue; host or cells: SW620 xenograft tumour homogenates from treated mice", "T2 sequence (P09874 whole entry)": "as the sequence (P09874 whole entry) above", "experiment": "PARP activity in SW620 tumour homogenates of formula III-treated mice ([32P] NAD+ incorporation)", "assay_type": "in vivo", "settings": "formula III 10 mg/kg intraperitoneal; SW620 xenografts", "description": "(§1) Exponentially growing cells were exposed to 1% DMSO in culture medium (control) or a compound of formula I or III in 1% DMSO at the concentrations indicated in FIG. 4 to cells permeabilised with digitonin, or intact cells for 20 minutes prior to washing and digitonin-permeabilization. PARP activity was measured by incorporation of a [32P] labelled NAD+ substrate into TCA precipitateble polymers after stimulation by the addition of a blunt-ended oligonucleotide and compared with non-oligonucleotide-stimulated cells. PARP activity in tumour homogenates (1 in 40 in isotonic buffer) from formula III-treated mice was measured in the same way. PARP activity in pbls and tumour homogenates from formula I-phosphate treated mice was measured by immunological detection of polymer using the 10H antibody. Briefly, tumour homogenates diluted to up to 1:1000 in isotonic buffer were incubated with 350 μM NAD for 6 min and blotted onto nitrocellulose membrane. The poly(ADP-ribose) (PAR) polymer formation was quantified by chemiluminescence detection using a Fuji LAS3000 UV Illuminator by reference to serial dilutions of a PAR standard, following incubation with 10H antibody to PAR and a secondary anti-mouse antibody."}, "SW620 xenografts": {"tested_on": "SW620 xenografts", "experiment": "Tumour growth in mice bearing SW620 xenografts", "assay_type": "in vivo", "settings": "formula III 15 mg/kg daily×5 in conjunction with temozolomide", "from_the_text": "FIG. 8 is a graph showing the tumour growth (median relative tumour volume) in mice bearing SW620 xenografts following treatment with formula III in combination with temozolomide (TMZ) and with TMZ alone;\nFIG. 9 is a graph showing the tumour growth (median relative tumour volume) of mice bearing SW620 xenografts following treatment with formula I-phosphate in combination with temozolomide (TMZ) and with formula I-phosphate and TMZ alone;\nHowever, shortly after this time the tumour size begins to increase."}, "PARP [2]": {"target": "T3, PARP (Mus musculus, UniProt P11103)", "T3 construct": "endogenous in cells; host or cells: L1210 cells", "T3 sequence (P11103 whole entry)": "as the sequence (P11103 whole entry) above", "experiment": "Cellular PARP activity assay, permeabilised L1210 cells", "assay_type": "cell-based", "settings": "L1210 cells permeabilised with digitonin prior to adding the inhibitor", "description": "as §1"}, "PARP [3]": {"target": "T3, PARP", "experiment": "Cellular PARP activity assay, intact L1210 cells", "assay_type": "cell-based", "settings": "intact L1210 cells exposed for 20 minutes prior to permeabilisation", "description": "as §1"}, "[4]": {"settings": "formula I-phosphate 1 mg/kg, compared with 10 mg/kg"}, "[5]": {"settings": "formula I-phosphate 10 mg/kg intraperitoneal, 24 hr after administration"}, "[6]": {"settings": "formula I-phosphate 10 mg/kg intraperitoneal, thirty minutes after administration"}, "[7]": {"settings": "formula III 10 mg/kg intraperitoneal"}}}
{"smiles": "CNCc1ccc(-c2[nH]c3cc(F)cc4c3c2CCNC4=O)cc1.O=P(O)(O)O", "note": "[formula I-phosphate]", "values": [{"measurement": "effect on PARP activity in tumour", "setting": "PARP (tumour PARP); [4]", "value": "less pronounced effect"}, {"measurement": "PARP activity in tumour", "setting": "PARP (tumour PARP); formula I-phosphate 10 mg/kg intraperitoneal, up to 24 hr, SW620 xenografts", "value": "< 50", "unit": "% control"}, {"measurement": "effect on PARP activity in pbls", "setting": "PARP (pbl parp); [4]", "value": "less pronounced effect"}, {"measurement": "PARP activity in pbls", "setting": "PARP (pbl parp); formula I-phosphate 10 mg/kg intraperitoneal, up to 24 hr", "value": "< 50", "unit": "% control"}, {"measurement": "plasma concentration of formula I", "setting": "[1]; [4]", "value": "lower levels"}, {"measurement": "tumour concentration of formula I", "setting": "[1]; [4]", "value": "lower levels"}, {"measurement": "decrease of concentration with time, plasma versus tumour", "setting": "[1]; formula I-phosphate 10 mg/kg intraperitoneal", "value": "more rapidly in the plasma than in the tumour"}, {"measurement": "plasma concentration of parent compound (formula I)", "setting": "[1]; [5]", "value": "none could be detected"}, {"measurement": "tumour concentration of parent compound (formula I)", "setting": "[1]; [5]", "value": "significant levels were detectable"}, {"measurement": "plasma concentration of parent compound (formula I)", "setting": "[1]; [6]", "value": "high levels"}, {"measurement": "tumour concentration of parent compound (formula I)", "setting": "[1]; [6]", "value": "high levels"}, {"measurement": "solubility relative to formula I", "setting": "Solubility", "value": "increases the solubility"}]}
{"smiles": "CN(C)Cc1ccc(-c2nc3cccc4c3n2CCNC4=O)cc1", "note": "[formula III]", "values": [{"measurement": "PARP activity in the tumour", "setting": "PARP (tumour PARP act)", "value": "inhibits PARP activity"}, {"measurement": "tumour outcome at autopsy at the end of the experiment", "setting": "SW620 xenografts", "value": "complete tumour regression"}, {"measurement": "PARP inhibitory activity, formula I compared with formula III", "setting": "PARP [2]", "value": "no difference"}, {"measurement": "distribution to the tumour", "setting": "[1]; [7]", "value": "distributes well to the tumour"}, {"measurement": "retention in tumour versus plasma with time", "setting": "[1]; [7]", "value": "preferentially retained with time"}]}
{"smiles": "CNCc1ccc(-c2[nH]c3cc(F)cc4c3c2CCNC4=O)cc1", "note": "[formula I]", "values": [{"measurement": "PARP inhibitory activity, formula I compared with formula III", "setting": "PARP [3]", "value": "more potent"}, {"measurement": "PARP inhibitory activity, formula I compared with formula III", "setting": "PARP [2]", "value": "no difference"}]}
